Where only a bound is given, the exact number is not on record here.

This passage reports IC50 results from patent publication US8377974B2 (Millennium Pharmaceuticals, Inc., priority 2004, dated 2013).

T1 sequence (P00742 235-488 limits assumed): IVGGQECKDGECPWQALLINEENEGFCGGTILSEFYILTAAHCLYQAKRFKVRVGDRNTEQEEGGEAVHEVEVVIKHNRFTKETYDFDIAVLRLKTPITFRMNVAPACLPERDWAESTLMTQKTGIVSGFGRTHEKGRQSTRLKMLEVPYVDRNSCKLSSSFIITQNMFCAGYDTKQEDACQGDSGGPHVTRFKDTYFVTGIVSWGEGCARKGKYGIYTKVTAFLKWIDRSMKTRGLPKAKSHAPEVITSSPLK
T1 sequence (P00742 41-179 partner limits assumed): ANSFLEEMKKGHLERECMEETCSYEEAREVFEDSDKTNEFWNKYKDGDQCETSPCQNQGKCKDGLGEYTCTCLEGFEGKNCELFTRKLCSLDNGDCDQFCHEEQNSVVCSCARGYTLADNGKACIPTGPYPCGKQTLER

This assay addresses T1, human plasma protein factor Xa (Homo sapiens, UniProt P00742).
T1 construct: measure proteolytic activity of the enzyme (factor Xa); purchased Haematologic Technologies (Essex Junction, Vt.); host or cells: human plasma
The assay can be described thus: Factor Xa IC50 determination: cleavage of paranitroanilide substrate S-2765 in 96-well plates. It counts as biochemical. The note with it: fXa 1 nM, S-2765 100 μM, Tris buffered saline pH 7.4, room temperature. Put shortly: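 Human plasma factor Xa (1 nM) preincubated 5 min at room temperature with inhibitor (0.01 nM–10 μM final) in Tris-buffered saline pH 7.4 with 5 mM CaCl2, 0.1% BSA, 5% DMSO. S-2765 at 100 μM final; hydrolysis at 405 nm over 2 min. IC50 from 4-parameter fit of initial velocities.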
What is called IC50 is the concentration that inhibits the measured activity by half. For the compound `CCOc1cc(Nc2ccc(C3=NOC(CNC(=O)c4ccc(Cl)s4)C3)cc2)ccn1` (stereo not drawn) [Example 401, 5-Chloro-N-((3-(4-(2-ethoxypyridin-4-ylamino)phenyl)-4,5-dihydroisoxazol-5-yl)methyl)thiophene-2-carboxamide], the IC50 is ≤ 100 nM.

For the compound `O=C(NCC1CC(c2ccc(Nc3c(Cl)cncc3Cl)cc2)=NO1)c1ccc(Cl)s1` (stereo not drawn) [Example 402, 5-Chloro-N-((3-(4-(3,5-dichloropyridin-4-ylamino)phenyl)-4,5-dihydroisoxazol-5-yl)methyl)thiophene-2-carboxamide], the IC50 is ≥ 500 nM. The value for `O=C(NCC1CC(c2ccc(Nc3ccncc3C(F)(F)F)cc2)=NO1)c1ccc(Cl)s1` (stereo not drawn) [Example 403, 5-Chloro-N-((3-(4-(3-(trifluoromethyl)pyridin-4-ylamino)phenyl)-4,5-dihydroisoxazol-5-yl)methyl)thiophene-2-carboxamide] was ≤ 100 nM.
